Test results as given in patent publication EP1792618A1, “R-mirtazapine for the treatment of pain” (Freynhagen, Rainer, priority 2005, dated 2007).

How the values were obtained:
acute thermal pain = experiment: Plantar test (radiant heat, Hargreaves): paw withdrawal latency after intrathecal injection; assay type: in vivo, Male Wistar rats; details: for Paw withdrawal latencies: 240 minutes after injection, mean ± sem, vehicle 11.2 ± 0.24 s, cut-off 20 sec; for overall effect on acute thermal pain over the dose range tested: 0.001 to 1 mg/kg intrathecal; for time after injection of the maximum of pro- or antinociception: intrathecal injection
Description: The pro- or antinociceptive properties of (+/-)-mirtazapine and its enantiomers R(-)-mirtazapine and S(+)mirtazapine, respectively, were analyzed in acute thermal pain (Hargreaves et al., Pain, 32 (1988) 77-88). Male Wistar rats weighing 350-400 g (housed three per cage, access to foot and water ad libitum, room maintained at 22°C ± 0,5°C and on a 12:12 light- dark cycle) were anesthetized with intraperitoneal (i.p.) injection of pentobarbital (60 mg/kg i.p.). The rats were implanted with polyethylene catheters (inner diameter 0.28 mm, outer diameter 0.61 mm), which were advanced from the cisterna magna to the rostral edge of the lumbar enlargement as described before (Muth-Selbach et al., Anesthesiology, 101 (2004) 753-8; Ahmadi et al., Science, 300, (2003) 2094-2097; Zeilhofer et al., J Neurosci 20 (2000) 4922-9). Rats with impaired motor function after catheter implantation were excluded from the study. Paw withdrawal latencies were tested 6-10 days after surgery at all times in the same air conditioned room. The lateral plantar surface of both hind paws was exposed to a defined radiant heat stimulus through a transparent perspex surface (Plantar Test, Hugo Basile Inc., Italy, Comerio) and paw withdrawal latencies were recorded (Hargreaves et al., op.cit.). The animal is unrestrained and unhandled during experiments. When the rat feels pain and withdraws its paw, the sudden drop of reflected radiation switches off the I.R. source and stops the reaction time counter so that the withdrawal latency to the nearest 0.1 s is determined. Paw withdrawal latencies of both hind paws were determined from 4 independent measurements for each time point. A cut-off time of 20 sec was set to avoid tissue damage.
Behavior as described above was tested before and 120, 240 min and 24 hours after application of either substance. In order to find the maximum effect over time, groups of 4 animals were tested before and 30, 60, 120, 180, 240 min and 24 hours after application of 0.1 mg/kg (+/-)-mirtazapine.
(+/-)-Mirtazapine, R(-)-mirtazapine, S(+)mirtazapine or vehicle (0.9% NaCl) were applied to the cerebrospinal fluid via intrathecal catheters in a total volume of 10 µl. Rats were randomly assigned to the different treatment groups consisting of 6 to 9 rats each. All behavioral observations were performed in a standardized blinded fashion.
After the behavioral tests, rats were sacrificed by a lethal dose of pentobarbital i.p.. Proper position of the catheter tip was verified after laminectomy and methylene blue injection through the catheter. All behavioral tests were performed with permission of the German authorities concerned with the law on experiments involving animals and were in accordance with the guidelines of the International Association for the Study of Pain.
(+/-)-Mirtazapine (1, 2, 3, 4, 10, 14b-Hexahydro-2-methyl-pyrazino-[2, 1-a] pyrido [2, 3-c] [2] benzazepin, free base), R(-)-mirtazapine and S(+)-mirtazapine maleate salt were generously donated by N.V. Organon, Oss (The Netherlands) and were of the highest quality available. All chemicals were dissolved in 0.9 % NaCl and stored in aliquots at - 70°C. Fresh dilutions were made with 0.9 % NaCl on every experimental day.
Group data are presented as mean + standard error of the mean(sem). Withdrawal latencies in the different treatment groups were analyzed by analysis of variance (repeated measurements) followed by LSD post hoc tests (SAS Software System). P ≤ 0.05 was assumed significant. In detail, for each dose (i.e. 1, 0.1, 0.01 and 0.001 mg/kg) twelve comparisons were made at five time points.

neuropathic pain = details: chronic constriction injury model, rats; cited from earlier work
[1] = test system: hypothermic response to a 5-HT1-agonist; details: normal rats, chronic administration; compared with one of the enantiomers alone; cited from earlier work
[2] = test system: acute nociceptive responses; details: rats; cited from earlier work
thermal pain = details: 3-30 mg/kg intraperitoneally, rats; cited from earlier work
[3] = test system: α2-adrenergic autoreceptors; details: compared with R(-)-mirtazapine; cited from earlier work
[4] = 0.001 mg/kg intrathecal (lowest dose)
[5] = 0.01 mg/kg intrathecal, time points 120, 240 minutes, 24 hours as stated per substance
[6] = 0.1 mg/kg intrathecal, time points 120, 240 minutes, 24 hours as stated per substance
[7] = 1 mg/kg intrathecal, time points 120, 240 minutes, 24 hours as stated per substance

| Compound | pro- or antinociceptive effect (acute thermal pain; [4]) | Paw withdrawal latencies (acute thermal pain; 0.001 mg/kg intrathecal) [s] | Paw withdrawal latencies (acute thermal pain; 0.01 mg/kg intrathecal) [s] | pro- or antinociceptive effect (acute thermal pain; [5]) | Paw withdrawal latencies (acute thermal pain; 0.1 mg/kg intrathecal) [s] | pro- or antinociceptive effect (acute thermal pain; [6]) | Paw withdrawal latencies (acute thermal pain; 1 mg/kg intrathecal) [s] | pro- or antinociceptive effect (acute thermal pain; [7]) | overall effect on acute thermal pain over the dose range tested (acute thermal pain) | time after injection of the maximum of pro- or antinociception (acute thermal pain) [min] | mechanical allodynia (neuropathic pain) | mechanical hyperalgesia (neuropathic pain) | thermal hyperalgesia (neuropathic pain) | hypothermic response to a 5-HT1-agonist [1] | acute nociceptive responses in the tail flick test [2] | antinociceptive activity in thermal pain (hot plate) (thermal pain) | potency as blocker of α2-adrenergic autoreceptors [3] |
| --- | --- | --- | --- | --- | --- | --- | --- | --- | --- | --- | --- | --- | --- | --- | --- | --- | --- |
| CN1CCN2c3ncccc3Cc3ccccc3[C@@H]2C1 [R(-)-mirtazapine] | neither pro- nor antinociceptive | 11.3 ± 0.9 | 15.6 ± 0.6 | antinociceptive | 13.8 ± 0.4 | antinociceptive | 13.5 ± 0.5 | antinociceptive | only elicited antinociceptive effects | 240 | – | – | – | – | – | – | – |
| CN1CCN2c3ncccc3Cc3ccccc3C2C1 (racemic) [(+/-)-mirtazapine, 1,2,3,4, 10, 14b-Hexahydro-2-methyl-pyrazino-[2,1-a] pyrido [2,3-c] [2] benzazepin] | neither pro- nor antinociceptive | 11.5 ± 0.9 | 14.5 ± 1.0 | antinociceptive | 14.4 ± 0.3 | antinociceptive | 6.9 ± 0.4 | profound pronociceptive effect | dose-dependently exerted pro- and- antinociceptive activity | 240 | not | significantly attenuated | significantly attenuated | potentiated | did not affect | exhibited antinociceptive activity | – |
| CN1CCN2c3ncccc3Cc3ccccc3[C@H]2C1 [S(+)-mirtazapine] | neither pro- nor antinociceptive | 8.7 ± 0.8 | 8.4 ± 1.1 | pronociceptive | 8.1 ± 1.0 | pronociceptive | 7.4 ± 0.4 | pronociceptive | exclusively pronociceptive | 240 | – | – | – | – | – | – | more potent blocker |
